Assay results taken from ChEMBL document CHEMBL1122790, “Novel opiates and antagonists. 6. 7-Alkyl-6,7-didehydromorphinans” (1984).
The source made the active and inactive calls. No cut-off for these calls is given here.

Tests used:
Rattus norvegicus [1] = assay: Compound was evaluated for its analgesic activity by Rat-tail-flick test after subcutaneous administration at a dose 10 mg/kg; Ia= inactive; type: functional, organism-based; parameters: dose 10 mg/kg
Mus musculus [2] = assay: Compound was evaluated for its analgesic activity by mouse acetic acid writhing test after subcutaneous administration at a dose 10 mg/kg; Ia= inactive; type: functional, organism-based; parameters: dose 10 mg/kg
Mus musculus [3] = assay: Analgesic activity in the mouse acetic acid writhing test following s.c. administration.; type: functional; conditions: sc
Rattus norvegicus [4] = assay: Compound was evaluated for its analgesic activity by Rat-tail-flick test after subcutaneous administration; type: functional; conditions: for ED50: sc
Mus musculus [5] = assay: Compound was evaluated for its analgesic activity by mouse acetic acid writhing test after subcutaneous administration at a dose 10 mg/kg; type: functional; conditions: sc

SMILES | ED50 (Mus musculus [3]) [mg/kg] | ED50 (Rattus norvegicus [4]) [mg/kg] | further results
COc1ccc2c3c1OC1C(=O)/C(=C/N(C)C)CC4C(C2)N(C)CCC314 (stereo not drawn) | – | – | ED50 (Rattus norvegicus [1]): inactive; ED50 (Mus musculus [2]): inactive
CC(=O)C1=CCC23CCN(C)C(Cc4ccc(O)cc42)C3C1 (stereo not drawn) | > 10 | > 10 | –
COc1ccc2c(c1)C13CC=C(C=O)C[C@@H]1C(C2)N(C)CC3 (stereo partly drawn) [listing 1 of 2 here] | 0.28 | – | –
COc1ccc2c3c1OC1C=C(C(C)O)CC4C(C2)N(C)CCC314 (stereo not drawn) | – | – | ED50 (Rattus norvegicus [1]): inactive; ED50 (Mus musculus [2]): inactive
CCCCNCC1=CC2Oc3c(OC)ccc4c3C23CCN(C)C(C4)C3C1 (stereo not drawn) | – | – | ED50 (Mus musculus [2]): inactive
CCCCC(=O)C1=CCC23CCN(C)C(Cc4ccc(O)cc42)[C@H]3C1 (stereo partly drawn) | 0.046 | 0.0135 | –
COc1ccc2c3c1OC1C=C([C@H](O)CCCc4ccccc4)CC4C(C2)N(C)CCC314 (stereo partly drawn) | 0.72 | – | –
CCCCC(=O)C1=CC2Oc3c(OC)ccc4c3C23CCN(C)C(C4)C3C1.Cl (stereo not drawn) | – | > 10 | ED50 (Mus musculus [2]): inactive
COc1ccc2c3c1OC1C=C(C=O)CC4(O)C(C2)N(C)CCC314 (stereo not drawn) | 3.6 | – | –
CCCC[C@@H](O)C1=CCC23CCN(C)C(Cc4ccc(OC)cc42)[C@H]3C1 (stereo partly drawn) | 0.0062 | 1.8 | –
CCCCC(C)(O)C1=CCC23CCN(C)C(Cc4ccc(O)cc42)C3C1 (stereo not drawn) | – | – | ED50 (Mus musculus [2]): inactive
CCCC[C@H](O)C1=CCC23CCN(C)C(Cc4ccc(OC)cc42)[C@H]3C1 (stereo partly drawn) | 0.0058 | 0.3 | –
COc1ccc2c(c1)C13CC=C(C=O)C[C@@H]1C(C2)N(C)CC3 (stereo partly drawn) [listing 2 of 2 here] | – | – | ED50 (Rattus norvegicus [1]): inactive
COc1ccc2c(c1)C13CCN(C)C(C2)C1CCC(=O)C3 (stereo not drawn) | – | > 20 | –
CCCCC(C)(O)C1=CCC23CCN(C)C(Cc4ccc(OC)cc42)[C@H]3C1 (stereo partly drawn) | 0.0125 | 3.2 | –
CCCCC(O)C1=CC2Oc3c(OC)ccc4c3C23CCN(C)C(C4)C3(O)C1.Cl (stereo not drawn) | 9.8 | – | –

SMILES | ED50 (Mus musculus [3]) [mg/kg] | ED50 (Rattus norvegicus [4]) [mg/kg] | further results
CCCCC(=O)C1=CCC23CCN(C)C(Cc4ccc(OC)cc42)[C@H]3C1.Cl (stereo partly drawn) | 0.82 | – | –
CCCCC(O)C1=CCC23CCN(CC4CC4)C(Cc4ccc(OC)cc42)[C@H]3C1 (stereo partly drawn) | 0.21 | – | –
COc1ccc2c(c1)C13CCN(C)C(C2)[C@H]1CCC(=O)C3 (stereo partly drawn) | 0.49 | 0.66 | –
CCCCC(O)C1=CC2Oc3c(OC)ccc4c3C23CCN(C)C(C4)C3C1 (stereo not drawn) | 3.13 | – | ED50 (Rattus norvegicus [1]): inactive
CN1CC[C@]23c4c5ccc(O)c4O[C@H]2[C@@H](O)C=C[C@H]3[C@H]1C5.CN1CC[C@]23c4c5ccc(O)c4O[C@H]2[C@@H](O)C=C[C@H]3[C@H]1C5.O=S(=O)(O)O | 0.79 | 7.32 | –
CCCCC(O)C1=CCC23CCN(C)C(Cc4ccc(OC)cc42)[C@@H]3C1 (stereo partly drawn) | – | – | ED50 (Mus musculus [2]): inactive
COc1ccc2c3c1O[C@H]1C(=O)CC[C@H]4[C@@H](C2)N(C)CC[C@]314.O=C(O)C(O)C(O)C(=O)O | 1.06 | – | –
COc1ccc2c(c1)C13CCN(CC4CC4)C(C2)[C@H]1CCC(=O)C3 (stereo partly drawn) | > 10 | – | AD50 (Rattus norvegicus [4]): 1.3 mg/kg
CCCCC(C)(O)C1=CCC23CCN(C)C(Cc4ccc(OC)cc42)C3C1 (stereo not drawn) | – | – | ED50 (Rattus norvegicus [1]): inactive; ED50 (Mus musculus [2]): inactive
COc1ccc2c3c1O[C@H]1C(=O)CC[C@@]4(O)[C@@H](C2)N(C)CC[C@]314.Cl [OXYCODONE HYDROCHLORIDE] | 0.3 | – | –
CCCCS/C=C1\CC2C3Cc4ccc(OC)c5c4C2(CCN3C)C(O5)C1=O (stereo not drawn) | > 10 | > 10 | –
COc1ccc2c3c1OC1C=C(C=O)CC4C(C2)N(C)CCC314 (stereo not drawn) | 1.45 | – | ED50 (Rattus norvegicus [1]): inactive
COc1ccc2c3c1OC1C=C(C(C)=O)CC4C(C2)N(C)CCC314 (stereo not drawn) | – | – | ED50 (Rattus norvegicus [1]): inactive; ED50 (Mus musculus [2]): inactive
COc1ccc2c(c1)C13CC=C(C=O)C[C@@H]1C(C2)N(C)CC3.Cl (stereo partly drawn) | – | – | ED50 (Mus musculus [5]): 4.55 mg/kg
COc1ccc2c3c1OC1C=C([C@@H](O)CCCc4ccccc4)CC4C(C2)N(C)CCC314 (stereo partly drawn) | 1.6 | – | –
CN1CC[C@]23c4c5ccc(O)c4O[C@H]2C(=O)CC[C@H]3[C@H]1C5.Cl [HYDROMORPHONE HYDROCHLORIDE] | 0.08 | – | –
